# Data reported in US11135320B2, “Radioligands for pretargeted pet imaging and methods of their therapeutic use” (priority 2015, dated 2021).
# Where “and” joins values, the source holds several entries; their conditions need not be identical. Identical values can stand only once.
# Key:
# [1] = Partition coefficient (log D), 1-octanol / PBS; format: physicochemical; conditions: 1-octanol / PBS (pH 7.4)
# Protocol: Once the precursors were made, the tetrazine constructs were then radiolabeled via incubation with [^64Cu]—CuCl2 for 10 minutes at room temperature in 200 mM NH4OAc, pH 5.0 and purified via reverse-phase C18 HPLC (tR=8.7 min for ^64Cu-Tz-SarAr and 9.7 min for ^64Cu-Tz-PEG7NOTA; FIGS. 6-9). In both cases, the identity of the radiolabeled product was confirmed via co-injection of unlabeled ^natCu-Tz-SarAr and ^natCu-Tz-PEG7-NOTA standards. Ultimately, ^64Cu-Tz-PEG7NOTA was prepared in greater than 99% radionuclidic purity, 78±6% decay-corrected isolated yield, and a specific activity of 323±37 mCi/μmol (n=6). Similarly, ^64Cu-Tz-SarAr was synthesized in greater than 99% radionuclidic purity, 79±7% decay-corrected isolated yield, and a specific activity of 310±36 mCi/μmol (n=6). The ^64Cu-Tz-NOTA radioligand was synthesized, radiolabeled, and purified as previously reported by Zeflis et al. J. Nucl. Med. 2013, 54, 1389-1396, which is hereby incorporated by reference in its entirety. In order to probe the influence of the structural changes on solubility, the partition coefficients of the various radioligands were determined using PBS (pH 7.4) and 1-octanol (Table 1). […] For example, the replacement of NOTA with SarAr rendered ^64Cu-Tz-SarAr (log D=−2.08±0.06) more hydrophobic than ^64Cu-Tz-NOTA (log D=−2.54±0.1).
# ^64Cu-Tz-PEG7-NOTA, ^64Cu-Tz-NOTA, or ^64Cu-Tz-SarAr (1 μCi) was added to a mixture of 3 mL PBS (pH 7.4) and 3 mL 1-octanol. The resulting mixture was then vortexed thoroughly for 10 minutes and subsequently centrifuged at 1,000 rpm for 10 min. 1 mL of each layer (PBS and 1-octanol) was then collected, and the amount of radioactivity in each sample was counted on a gamma counter calibrated for ^64Cu. The partition coefficient (log D) was calculated using the formula: Log D=log10[(countsoctanol)/(countsPBS] All experiments were performed in triplicate. Reaction of ^64Cu-Tz Radioligands with huA33-TCO
# [2] = Stability of ^64Cu-labeled tetrazines in PBS (pH 7.4) at 37° C.; format: physicochemical; conditions: PBS pH 7.4, 37° C.
# Protocol: (§1) Next, the aqueous and serum stabilities were determined via incubation at 37° C. (Tables 2-3). […] For example, after a 4 h incubation, 77.8±3.5% and 81.2±3.7% of ^64Cu-Tz-PEG7-NOTA and ^64Cu-Tz-SarAr, respectively, remained intact. Importantly, the release of ^64Cu^2+ from the chelators was not observed in any of the trials. Despite the rates of decomposition, the speed of the IEDDA reaction was faster than short blood half-lives of these small molecules; therefore, the radioligands remained functional in vivo.
# (§2) ^64Cu-Tz-PEG7-NOTA and ^64Cu-Tz-SarAr (1000 μCi) were incubated on an agitating thermomixer (300 rpm) at 37° C. in 500 μL of either PBS (pH 7.4) or human serum. At each prescribed time-point, 100 μL of the solution was removed and placed into a 1.7 mL microcentrifuge tube. For the PBS samples, the compound was injected directly onto the HPLC and analyzed using a gradient of 5:95 CH3CN:H2O (both with 0.1% TFA) to 95:5 CH3CN:H2O over 15 min. For the serum samples, 100 μL cold CH3CN was added to the serum, and the resultant mixture was vortexed and centrifuged at 10,000 rpm for 10 min. After this, the clear supernatant was removed, moved to a new 1.7 mL microcentrifuge tube, and centrifuged again at 10,000 rpm for 10 min. The clear supernatant from this second spin was then injected into the HPLC and analyzed using a gradient of 5:95 CH3CN:H2O (both with 0.1% TFA) to 95:5 CH3CN:H2O over 15 min. The residual protein from the centrifuge spins was checked for radioactivity, and only minimal residual activity remained (less than 1% of the starting ^64Cu for each ^64Cu-Tz-PEG7-NOTA and ^64Cu-Tz-SarAr). The fraction of intact ^64Cu-Tz-PEG7-NOTA or ^64Cu-Tz-SarAr was determined by integrating the peak corresponding to the compound (tR=9.7 and 8.7 minutes, respectively) and dividing by the integral over the whole HPLC run. Both the injection loop and column were monitored to detect the presence of residual activity. All experiments were performed in triplicate.
# [3] = Stability of ^64Cu-labeled tetrazines in human serum at 37° C.; format: in vitro ADME
# Protocol: as §1, §2
# [4] = PET imaging with ^64Cu-labeled tetrazine radioligands in healthy mice; format: in vivo, athymic nude mice
# Protocol: All PET imaging experiments were performed on an Inveon PET/CT scanner (Siemens Healthcare Global). Healthy female athymic nude mice (n=4 per radioligand) were administered ^64Cu-Tz-NOTA, ^64Cu-Tz-PEG7-NOTA, or ^64Cu-Tz-SarAr (300-350 μCi in 200 μL 0.9% sterile saline) via intravenous tail vein injection (t=0). Approximately 5 minutes prior to the PET images, mice were anesthetized by inhalation of 2% isoflurane (Baxter Healthcare, Deerfield, Ill.)/oxygen gas mixture and placed on the scanner bed; anesthesia was maintained using 1% isoflurane/gas mixture. Static scans were recorded at various time points after injection with a minimum of 30 million coincident events (10-30 min total scan time). An energy window of 350-700 keV and a coincidence timing window of 6 ns were used. Data were sorted into 2-dimensional histograms by Fourier re-binning, and the images were reconstructed using a two-dimensional ordered subset expectation maximization (2DOSEM) algorithm (16 subsets, 4 iterations) into a 128×128×159 (0.78×0.78×0.80 mm) matrix. The image data was normalized to correct for non-uniformity of response of the PET, dead-time count losses, positron branching ratio, and physical decay to the time of injection but no attenuation, scatter, or partial-volume averaging correction was applied. Activity concentrations (percentage of dose per gram of tissue [% ID/g]) and maximum intensity projections were determined by conversion of the counting rates from the reconstructed images. All of the resulting PET images were analyzed using ASIPro VM™ software.
compound,measurement,setting,value
O=C([O-])CN1CCN(CC(=O)[O-])CC(Cc2ccc(NC(=O)CCCC(=O)NCc3ccc(-c4nncnn4)cc3)cc2)N(CC(=O)[O-])CC1.[64Cu+2] (centres unmarked) [^64Cu-Tz-NOTA],Log D,[1],−2.54±0.1 and −2.54 +/− 0.10
same,% Intact (PBS),[2]; 2 h,91.6 +/− 1.9%
same,% Intact (Serum),[3]; 2 h,85.4 +/− 6.6%
same,excretion pathway (PET imaging),[4],eliminated somewhat sluggishly through the gastrointestinal pathway
O=C(O)CN1CCN(CC(=O)O)CC(Cc2ccc(NC(=S)NCCOCCOCCOCCOCCOCCOCCOCCNC(=O)CCCC(=O)NCc3ccc(-c4nncnn4)cc3)cc2)N(CC(=O)O)CC1.[64Cu] (centres unmarked) [^64Cu-Tz-PEG7-NOTA],Log D,[1],−2.44±0.08 and −2.44 +/− 0.08
same,% Intact (PBS),[2]; 2 h,87.0±1.3% and 87.0 +/− 1.3%
same,% Intact (PBS),[2]; 4 h,83.2±4.6%
same,% Intact (PBS),[2]; 8 h,76.2 ± 2.6%
same,% Intact (Serum),[3]; 2 h,84.7 +/− 4.8% and 84.7 ± 4.8%
same,% Intact (Serum),[3]; 4 h,77.8±3.5%
same,% Intact (Serum),[3]; 8 h,64.0 ± 6.5%
same,excretion pathway (PET imaging),[4],excretion through both the intestines and the kidneys
NC12CNCCNCC(NCc3ccc(CNC(=O)CCCC(=O)NCc4ccc(-c5nncnn5)cc4)cc3)(CNCCNC1)CNCCNC2.[64Cu+2] [^64Cu-Tz-SarAr],Log D,[1],−2.08 +/− 0.06
same,% Intact (PBS),[2]; 2 h,94.7±0.6% and 94.7 +/− 0.6%
same,% Intact (PBS),[2]; 4 h,93.3±0.5%
same,% Intact (PBS),[2]; 8 h,89.7 ± 2.3%
same,% Intact (Serum),[3]; 2 h,92.0 +/− 2.1% and 92.0 ± 2.1%
same,% Intact (Serum),[3]; 4 h,81.2±3.7%
same,% Intact (Serum),[3]; 8 h,67.7 ± 4.3%
same,excretion pathway (PET imaging),[4],cleared quickly and cleanly through the urinary tract
